These results are taken from PMC9532558 (Acta Pharmaceutica Sinica. B, 2022).

The experiment has as its target ATP6V0D1 (V-ATPase V0 domain subunit d1) (Homo sapiens, UniProt P61421). Description: SPR. The format is binding.

Sequence of ATP6V0D1 (V-ATPase V0 domain subunit d1) (P61421 whole entry, the tested form may be a part): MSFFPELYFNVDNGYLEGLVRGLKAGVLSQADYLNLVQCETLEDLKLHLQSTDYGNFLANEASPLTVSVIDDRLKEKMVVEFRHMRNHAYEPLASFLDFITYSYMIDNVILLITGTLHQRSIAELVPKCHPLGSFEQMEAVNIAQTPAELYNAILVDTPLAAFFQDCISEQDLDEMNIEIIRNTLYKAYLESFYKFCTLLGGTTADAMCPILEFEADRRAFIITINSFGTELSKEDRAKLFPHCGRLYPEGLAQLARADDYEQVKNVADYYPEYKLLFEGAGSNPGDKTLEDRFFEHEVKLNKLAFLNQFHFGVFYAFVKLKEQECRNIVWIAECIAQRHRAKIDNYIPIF

The molecule `COc1cc2c(c(OC)c1OC)-c1c(cc(OC)c(OC)c1OC)C[C@](C)(O)[C@@H](C)C2` [SolA, Schisandrol A] registered a Kd of 2 µM.

The Kd is the free concentration of one partner at which half of the binding sites on the other are occupied at equilibrium, for simple one-to-one binding. A high value points to lower affinity.
